Measurements: PubChem BioAssay (NCI)
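These data come from cells grown in 96-well plates and exposed to compound for 48 hours at five concentrations. The concentration for full growth arrest is given as TGI.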

What was measured:
Assay in all cases: NCI tumour cell line growth inhibition, 48 h
OVCAR-5 ovarian = system: OVCAR-5 ovarian
RPMI-8226 leukemia = system: RPMI-8226 leukemia
OVCAR-4 ovarian = system: OVCAR-4 ovarian
KM20L2 colon = system: KM20L2 colon
SF-295 CNS = system: SF-295 CNS
EKVX NSCLC = system: EKVX NSCLC
UACC-62 melanoma = system: UACC-62 melanoma
SNB-19 CNS = system: SNB-19 CNS
SK-OV-3 ovarian = system: SK-OV-3 ovarian
KM12 colon = system: KM12 colon
K-562 leukemia = system: K-562 leukemia
SF-268 CNS = system: SF-268 CNS
HOP-62 NSCLC = system: HOP-62 NSCLC
A549 NSCLC = system: A549 NSCLC
786-0 renal = system: 786-0 renal
IGROV1 ovarian = system: IGROV1 ovarian
NCI-H23 lung = system: NCI-H23 lung
M19-MEL melanoma = system: M19-MEL melanoma
HCT-15 colon = system: HCT-15 colon
U251 CNS = system: U251 CNS
HT29 colon = system: HT29 colon
SNB-78 CNS = system: SNB-78 CNS
UACC-257 melanoma = system: UACC-257 melanoma
OVCAR-8 ovarian = system: OVCAR-8 ovarian
HCT-116 colon = system: HCT-116 colon
HOP-92 NSCLC = system: HOP-92 NSCLC
SK-MEL-2 melanoma = system: SK-MEL-2 melanoma
SR leukemia = system: SR leukemia
NCI-H460 lung = system: NCI-H460 lung
COLO 205 colon = system: COLO 205 colon
LOX IMVI melanoma = system: LOX IMVI melanoma
SK-MEL-5 melanoma = system: SK-MEL-5 melanoma
HL-60(TB) leukemia = system: HL-60(TB) leukemia
DLD-1 colon = system: DLD-1 colon
SW-620 colon = system: SW-620 colon
SK-MEL-28 melanoma = system: SK-MEL-28 melanoma
HCC-2998 colon = system: HCC-2998 colon
OVCAR-3 ovarian = system: OVCAR-3 ovarian
M14 melanoma = system: M14 melanoma
CCRF-CEM leukemia = system: CCRF-CEM leukemia
MOLT-4 leukemia = system: MOLT-4 leukemia
SNB-75 CNS = system: SNB-75 CNS
DMS 273 small cell lung = system: DMS 273 small cell lung
UO-31 renal = system: UO-31 renal
MALME-3M melanoma = system: MALME-3M melanoma
LXFL 529 NSCLC = system: LXFL 529 NSCLC
TK-10 renal = system: TK-10 renal
DMS 114 small cell lung = system: DMS 114 small cell lung
ACHN renal = system: ACHN renal
NCI-H226 lung = system: NCI-H226 lung
NCI-H522 lung = system: NCI-H522 lung
RXF 393 renal = system: RXF 393 renal
HOP-18 NSCLC = system: HOP-18 NSCLC
CAKI-1 renal = system: CAKI-1 renal

Measured: TGI

O=C(c1ccccc1)C1N=NN(Cc2ccccc2[N+](=O)[O-])C1C(=O)c1ccccc1 (centres undefined)
> 100 µM: all assays above
